In patent US20130310387A1, “Monocyclic Heteroaryl Cycloalkyldiamine Derivatives” (NOVARTIS AG, priority 2012, published 2013) one finds inhibition, GI50 and IC50 data, which are given here for one compound.

One data set addresses T1, hERG channel (Homo sapiens, UniProt Q12809).
T1 construct: host or cells: HEK293
Briefly: Inhibition of the hERG channel (manual patch clamp assay). As to conditions: HEK293 cells stably transfected with hERG cDNA, whole-cell patch clamp, tail current. Type of data set: cell-based. An excerpt:
The hERG patch clamp assay was done according to standard procedures used in Genetic Toxicology and Safety Pharmacology, based on recommendations and descriptions of methods in the literature, and according to current guidelines (ICH S7B, The non clinical evaluation of the potential for delayed ventricular repolarization (QT interval prolongation) by human pharmaceuticals, 2005). The purpose of the study is to assess the effect of the test item ABC123 on tail current recorded from HEK293 cells stably transfected with hERG cDNA. The HEK293 cells, which have been stably transfected with hERG cDNA, are a model considered to be suitable for this purpose (Zhou et al., 1998). Repolarisation of cardiac ventricular myocytes is mainly due to outward potassium currents. The most important current in humans is the delayed rectifier potassium current, IK, which has both rapidly and slowly activating components (IKr and IKs) (Sanguinetti and Jurkiewicz, 1990). The human ether-a-gogo-related-gene (hERG) encodes the major protein underlying IKr. Thus, inhibition of hERG potassium channels may lead to delayed cardiac repolarisation (Sanguinetti et al., 1995). Prolongation of cardiac repolarisation is a side effect that can be associated with some drug therapies. This proarrhythmic alteration is characterised by a prolongation of the QT interval in the surface electrocardiogram and is of particular concern because it may lead to the development of polymorphic ventricular arrhythmias like torsade de pointes (for review see: Vandenberg, Walker and Campbell, 2001). […] HERG HEK (HEK293 cells stably transfected with hERG cDNA) obtained from the University of Wisconsin were used. For the experiments the cells were plated onto sterile Thermanox plastic coverslips (Nalge Nunc International) in 6-well plates. The dishes were stored in a humidified, gassed incubator. The coverslips with cells were transferred to the recording chamber and continuously superfused (at approximately 1-2 ml/min) with vehicle. The temperature of the vehicle in the bath chamber was regulated by temperature controllers to 35° C.±2.0° C. hERG currents were measured in the whole-cell patch-clamp configuration. Once a stable patch clamp configuration was achieved, recording commenced in voltage-clamp mode, with the cell initially clamped at -75 mV. hERG current was observed and recorded if a stable hERG tail current response could be induced. […] The hERG HEK293 cells were treated approximately 9 min with the test item. The following voltage protocol was applied to induce hERG currents: The step from -75 mV to +10 mV activates an outward current (i.e. current flows out of the cell) and the step from +10 mV to -40 mV produces the tail current (the tail current represents the time taken for the current to turn off). […] The leak current was recorded and subtracted by a P/3n pulse between the voltage pulses (0.1 Hz).
(In general: Block of hERG is tested as a sign of cardiac risk.)

Another data set deals with HBL-1 cells. Briefly: cells. As to conditions: HBL1, 96 h.
Data set [1] concerns phosphorylation of BLNK in Ramos B cells. Put plainly: Anti IgM-induced phosphorylation of BLNK in Ramos B cells. It is filed as cell-based. As to conditions: Homo sapiens, 0.25 h, anti IgM 15 min, flow cytometry anti-BLNK (pY84). As for the experimental part: Anti IgM-induced phosphorylation of BLNK (BLNK=B cell linker (SLP65=SH2 domain containing leukocyte protein of 65 kDa)) in Ramos B cells: Ramos B cells in a volume of 25 μl were incubated with 25 μl of the compound solution at 2-fold the desired final concentration for 30 min. at 37° C. Then 50 μL anti IgM was added, mixed and incubated for 15 min. at 37° C. In each experiment 8-fold serial dilutions of compounds were tested. The stimulation was stopped by addition of 100 μL/well of PFA (para formaldehyde) I PBS (phosphate buffered saline) (final conc. 2% PFA) for fixation and incubated for 15 min. at 37° C., then centrifuged at 1300 rpm for 3 min and permeabilized by resuspending the cell pellet in 100 μL methanol 90% and further incubated for 30 min at 4° C. The cells were then washed and phosphoproteins were detected by flow cytometry using fluorescently labeled anti-BLNK ([…]) (BD Biosciences).
In general terms: Flow cytometry measures light scatter and fluorescence of single cells or particles in a stream.

In a further data set the test system is OCI-Ly3 cells. Put plainly: B-cell lymphoma cell proliferation (WST-1 assay), OCI-Ly3. Type of data set: cell-based. As to conditions: OCI-Ly3, 3 days of incubation. As for the experimental part:
Cell proliferation was determined using the WST-1 assay (Roche, Mannheim, Germany), which measures the metabolic activity of the cells. […] The cell proliferation reagent WST-1 (10 μl/well) was added to the cells for 1-2 hours depending on the cell type which were cultured in 200 μl of medium. The absorbance was then measured with an enzyme-linked immunosorbent assay plate reader at a wavelength of 450 nm.

A further data set has as its system TMD-8 cells. Put plainly: cells. As to conditions: Homo sapiens, TMD8, 96 h.

T1 sequence (Q12809 whole entry): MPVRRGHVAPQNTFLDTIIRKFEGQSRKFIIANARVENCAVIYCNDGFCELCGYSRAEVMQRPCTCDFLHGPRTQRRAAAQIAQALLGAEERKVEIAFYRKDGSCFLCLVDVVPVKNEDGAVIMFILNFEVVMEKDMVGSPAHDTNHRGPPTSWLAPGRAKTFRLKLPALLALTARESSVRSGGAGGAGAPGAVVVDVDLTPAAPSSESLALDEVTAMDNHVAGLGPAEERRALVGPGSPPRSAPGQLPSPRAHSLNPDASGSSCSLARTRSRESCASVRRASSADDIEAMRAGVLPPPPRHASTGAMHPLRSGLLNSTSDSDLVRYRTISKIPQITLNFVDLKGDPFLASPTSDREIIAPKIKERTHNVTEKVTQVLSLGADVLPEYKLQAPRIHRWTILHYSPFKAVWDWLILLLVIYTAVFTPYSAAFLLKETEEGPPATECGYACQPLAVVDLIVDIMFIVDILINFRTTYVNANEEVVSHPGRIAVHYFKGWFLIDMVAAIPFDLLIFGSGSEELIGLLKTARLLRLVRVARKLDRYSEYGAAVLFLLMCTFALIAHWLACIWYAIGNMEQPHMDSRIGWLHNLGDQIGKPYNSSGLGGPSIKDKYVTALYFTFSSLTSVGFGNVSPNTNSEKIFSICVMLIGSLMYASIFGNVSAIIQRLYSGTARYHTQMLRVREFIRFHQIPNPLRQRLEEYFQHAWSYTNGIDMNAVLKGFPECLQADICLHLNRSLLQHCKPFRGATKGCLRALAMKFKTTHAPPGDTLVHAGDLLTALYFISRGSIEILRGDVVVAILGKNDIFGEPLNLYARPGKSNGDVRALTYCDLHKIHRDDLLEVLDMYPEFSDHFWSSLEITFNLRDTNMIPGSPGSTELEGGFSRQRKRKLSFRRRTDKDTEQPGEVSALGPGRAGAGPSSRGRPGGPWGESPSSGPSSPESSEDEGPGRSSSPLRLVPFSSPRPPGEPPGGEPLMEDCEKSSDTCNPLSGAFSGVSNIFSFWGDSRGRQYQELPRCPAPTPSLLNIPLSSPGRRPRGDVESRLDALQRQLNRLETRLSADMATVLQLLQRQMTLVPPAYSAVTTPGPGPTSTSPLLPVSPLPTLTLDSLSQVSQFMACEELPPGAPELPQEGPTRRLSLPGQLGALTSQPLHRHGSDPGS

Consider `NC(=O)c1nnc(N[C@@H]2CCCC[C@@H]2N)nc1Nc1cccc2cc[nH]c12` [Example 1.1, 3-((1R,2S)-2-Amino-cyclohexylamino)-5-(1H-indol-7-ylamino)-[1,2,4]triazine-6-carboxylic acid amide], for which the inhibition (usually the relative decrease from the control value, in per cent) at 9 min, 10 µM at hERG channel (at 10 uM) is -5 ± 4%. At hERG channel (at 30 uM), the inhibition at 9 min, 30 µM was 12 ± 6%. Moreover, the GI50 (in general, the concentration at which growth is held to half of that of the control) with HBL-1 cells was 105 nM; in the data set with OCI-Ly3 cells, “No inhibition”; with TMD-8 cells, 281 nM. The IC50 – broadly, the concentration at which inhibition is half-maximal – in data set [1] was found to be 106 nM.
